In article PMC5767004, “Inhibitors of the integrase–transportin-SR2 interaction block HIV nuclear import” (Retrovirology, 2018):
Entries after “also recorded” stand apart in the source; their conditions may differ.

Columns and labels:
[1] = system: HIV; details: cited from earlier work
[2] = system: HIV PIC nuclear import (IN-eGFP labeled virus); test: PIC nuclear import assay in HeLaP4 cells; format: cell-based, HIV-1; details: 100 µM hit compound, 5 h after infection, experiment compared to DMSO
[3] = biological target: T1, HIV-1 IN–TRN-SR2 interaction (UniProt P12497+Q9Y5L0); test: HIV-1 IN–TRN-SR2 AlphaScreen interaction assay; format: binding; details: evaluation as positive control, Fig. 2b
T1 construct: N-terminally His6-tagged and untagged IN; made in house; host or cells: E. coli BL21-CodonPlus2 (DE3)
Description: Compound stocks were dissolved at approximately 5 mM in dimethylsulfoxide (DMSO) in 96-well plates. Stocks were first diluted to 125 µM in assay buffer (150 mM NaCl, 25 mM Tris–HCl pH 7.4, 1 mM MgCl2, 0.1% (v/v) Tween-20 and 0.1% (w/v) bovine serum albumin (BSA)) supplemented with 2.5% (v/v) DMSO before 10 µl was transferred to a dry 384-well PS 384-OptiPlate (Perkin Elmer) on a Freedom EVO200 liquid handling robot (Tecan). Untagged TRN-SR2 at 2.5 µM and assay buffer containing 5% DMSO were transferred from a separate 96-well plate to the assay plates and represented the positive and negative controls, respectively. Next, 5 µl each of 5× working dilutions of GST-TRN-SR2 and His6-IN were added using an XRD-384 automated reagent dispenser (FluidX). The plate was left to incubate for 1 h at 7 °C before 5 µl of a glutathione donor and Ni^2+-chelate acceptor AlphaScreen bead mixture (Perkin Elmer) was added. […]
Development of robust high-throughput assays requires optimal buffer conditions in which both proteins and the detection method are stable and reproducible. […] This experience allowed us to readily adapt an assay buffer to meet the requirements for a high-throughput screen (HTS) for inhibitors of the interaction. […]

T1 sequence (Q9Y5L0 whole entry, other chains not shown): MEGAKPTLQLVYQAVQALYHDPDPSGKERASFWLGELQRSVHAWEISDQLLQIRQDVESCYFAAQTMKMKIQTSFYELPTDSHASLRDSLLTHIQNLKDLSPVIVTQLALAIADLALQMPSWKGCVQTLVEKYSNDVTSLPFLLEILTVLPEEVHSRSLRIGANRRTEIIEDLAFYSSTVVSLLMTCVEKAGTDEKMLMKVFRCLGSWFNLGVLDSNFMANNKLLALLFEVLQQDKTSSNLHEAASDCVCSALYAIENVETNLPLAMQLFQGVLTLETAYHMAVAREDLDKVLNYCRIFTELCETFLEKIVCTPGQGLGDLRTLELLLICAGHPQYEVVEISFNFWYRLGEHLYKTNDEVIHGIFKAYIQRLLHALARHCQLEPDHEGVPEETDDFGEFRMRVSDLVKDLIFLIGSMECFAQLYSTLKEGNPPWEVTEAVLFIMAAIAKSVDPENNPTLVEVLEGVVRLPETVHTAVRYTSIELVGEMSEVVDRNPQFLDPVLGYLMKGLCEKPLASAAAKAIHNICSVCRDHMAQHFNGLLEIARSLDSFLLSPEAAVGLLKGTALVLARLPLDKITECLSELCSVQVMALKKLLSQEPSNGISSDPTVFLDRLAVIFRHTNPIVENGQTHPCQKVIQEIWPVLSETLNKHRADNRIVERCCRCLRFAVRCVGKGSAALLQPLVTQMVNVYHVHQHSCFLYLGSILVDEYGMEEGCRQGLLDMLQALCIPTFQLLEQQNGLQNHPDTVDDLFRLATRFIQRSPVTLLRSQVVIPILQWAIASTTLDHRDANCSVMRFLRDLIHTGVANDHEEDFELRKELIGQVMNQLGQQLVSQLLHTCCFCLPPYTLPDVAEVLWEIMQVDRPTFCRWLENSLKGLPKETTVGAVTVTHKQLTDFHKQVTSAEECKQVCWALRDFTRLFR

## Cc1[nH]c2ccccc2c1CC(=O)N[C@@H](Cc1ccccc1)C(=O)N(C)c1ccccc1 [PF74, PF-3450074]
[1]; higher concentrations (10 µM)
  Inhibition of reverse transcription (in words): inhibits reverse transcription at higher concentrations
[1]; low concentrations (2 µM)
  Inhibition of HIV nuclear import (in words): known to inhibit nuclear import at low concentrations

## Cc1nnc(C(=O)NC(C)(C)c2nc(C(=O)NCc3ccc(F)cc3)c(O)c(=O)n2C)o1 [Ral, Raltegravir]
[2]
  % nuclear PICs (mean): 4.5%

## Untagged TRN-SR2: untagged recombinant Transportin-SR2 protein, positive control of the AlphaScreen
[3]
  Inhibition of the IN–TRN-SR2 AlphaScreen signal by untagged protein (titration, in words): could block the interaction completely; also recorded: did inhibit the signal
